# Reference: US20140243403A1, “TREATING COLORECTAL, PANCREATIC, AND LUNG CANCER” (The General Hospital Corporation, priority 2011, published 2014)
# How the values were obtained:
# [1] = test system: HCT8 and SW837 (KRAS-independent) xenografted tumors; assay: Subcutaneous xenografted tumors, KRAS-independent; type: in vivo, NOD/SCID mice; details: 15 mg/kg daily intraperitoneal
# Procedure: (§1) (C) TAK1 inhibition in mice with xenografted human tumors derived from the HCT8/SW837 (KRAS-independent) and SK-CO-1/SW620 (KRAS-dependent) cell lines. Cells expressing firefly luciferase were injected subcutaneously into the flanks of […]. Tumors are shown as imaged by IVIS detection of luminescence counts (in photons/sec) following 14 days of tumor growth followed by 6 days of treatment with either 15 mg/kg 5z-7-oxozeaenol or vehicle ([…] in arachis oil), IP delivery q.d. Quantitation of tumor volume (mm^3) is plotted on the right. Tumor volume data are represented as the mean of 4 tumors in 2 mice for each group+/−SEM.
# (§2) To validate the efficacy of 5Z-7-oxozeaenol in vivo, subcutaneous xenografted tumors were generated in NOD/SCID mice using four representative KRAS mutant cell lines: HCT8 and SW837 (KRAS-independent), and SK-CO-1 and SW620 (KRAS-dependent). Human colorectal cancer tumor cells were trypsinized and resuspended as single cell suspensions at 3×10^7 cells per ml in PBS. 100 μL (3×10^6 cells total) of this suspension were injected into opposite left and right flanks of NOD/SCID mice. All mice were housed in a pathogen-free environment. Tumor size was monitored daily and once tumor volume had reached approximately 200 mm^3, treatment with 5Z-7-oxozeaenol was initiated (7 to 14 days post-implantation). Mice were injected daily with 15 mg/kg 5Z-7-oxozeaenol. […]
# [2] = test system: KRAS-independent colon cancer cells; assay: Apoptosis by PARP and caspase-3 cleavage; type: cell-based, human; details: except at very high doses
# Procedure: (B) Effects of TAK1 inhibition on apoptosis and signaling in a representative panel of KRAS-independent and KRAS-dependent cell lines, 24 h after treatment. PARP and caspase-3 cleavage are shown as indicators of apoptosis, and AMPK threonine 172 (T172) phosphorylation is shown as a downstream indicator of TAK1 signaling activity. GAPDH serves as a gel loading control.
# Pharmacologic TAK1 inhibition triggered apoptosis in KRAS-dependent colon cancer cells, as measured by PARP and caspase-3 cleavage (FIG. 3B). […] Thus, low concentrations of 5Z-7-oxozeaenol, in the range of 0.625 to 1.25 μM, promote apoptosis selectively in KRAS-dependent colon cancer cells.
# [3] = test system: TOP-FLASH reporter in YAPC cells; assay: TOP-FLASH reporter in YAPC PDAC cells; type: cell-based; details: YAPC cells, simultaneous treatment with BIO
# Source text: (E) TOP-FLASH reporter activity in KRAS mutant PDAC cell lines following inhibition of GSK-3 kinase with increasing concentrations of the small molecule inhibitor BIO. PANC-1 are KRAS-independent cells and YAPC are KRAS-dependent cells. Luminescence counts (photons/sec) are plotted on the y-axis. Data are representative of three independent experiments+/−SEM.
# (F) TOP-FLASH reporter dose-response relationships in PANC-1 and YAPC cells following combined treatment with GSK-3 and TAK1 inhibitors (BIO and 5Z-7-Oxozeaenok respectively). Luminescence counts (photons/sec) are plotted on the y-axis. Data are represented as the means of triplicates+/−SEM.
# To further test the role of Wnt signaling in this context, experiments were performed using two KRAS mutant pancreatic cancer (PDAC) cell lines, PANC-1 and YAPC, which are APC wild-type. PANC-1 cells are KRAS-independent, whereas YAPC cells are KRAS-dependent, a distinction that has been linked to increased KRAS signaling in YAPC cells (Singh et al., 2009). […] In contrast, PANC-1 cells undergo stronger induction of TOP-FLASH activity with combined GSK-3 and TAK1 inhibition (FIG. 11F, […]). […] Finally, a constitutively-activated mutant of β-catenin (CTNNB1-CA) containing S33Y and S45A missense mutations was introduced into KRAS-dependent SW620 cells. This mutant caused partial losses in both KRAS and TAK1 dependencies (FIGS. 13A-C). […]
# [4] = test system: SK-CO-1 and SW620 (KRAS-dependent) xenografted tumors; assay: Subcutaneous xenografted tumors, KRAS-dependent; type: in vivo, NOD/SCID mice; details: 15 mg/kg daily intraperitoneal, 6 days of treatment
# Procedure: as §1, §2
# [5] = test system: HT29 cells expressing BMPR1A-CA (Q233D); assay: Sensitivity of HT29 cells expressing BMPR1A-CA; type: cell-based, human
# Procedure: (E) Introduction of a V5-tagged constitutively activated (CA) mutant of the BMP receptor, BMPR1A (Q233D) or control vector in HT29 cells and effects on 5Z-7-oxozeaenol sensitivity in terms of IC50 values.
# To determine whether TAK1-independent cells could be driven toward TAK1 dependency by enhanced KRAS/Wnt signaling, a series of reconstitution experiments was performed. HT29, SW620 or SKCO1 cells were infected with recombinant lentiviruses encoding either BMPR1A-CA and CTNNB1-CA or vector control (containing the ccDB gene). For BMPR1A-CA stable expression, cells were selected in 5 μg/mlBlasticidin for 7 days and pooled clones were established. Stable expression was verified using the V5 epitope tag on the BMPR1A transgene product. For CTNNB1-CA, the pWPI recombinant lentiviruses encode GFP driven by IRES. Thus, stable cell clones were obtaining by FACS live cell sorting to obtain the top 10% of GFP expressing cells. The SW620-CTNNB1-CA stable cell clones were passaged 1:5 every 2 days and assayed for KRAS dependency after the fifth passage.
# To further define the role of BMP signaling in TAK1 dependency, a constitutively-activated (CA) variant (Q233D) of BMPR1A (Zou et al., 1997) was ectopically expressed in HT29 cells. […] This was accompanied by dose-dependent decreases in Axin 2 and phosphorylated Smad2 levels. […]
# [6] = Toxicity in treated xenograft mice; type: in vivo, NOD/SCID mice; details: 15 mg/kg daily intraperitoneal
# Procedure: To validate the efficacy of 5Z-7-oxozeaenol in vivo, subcutaneous xenografted tumors were generated in NOD/SCID mice using four representative KRAS mutant cell lines: HCT8 and SW837 (KRAS-independent), and SK-CO-1 and SW620 (KRAS-dependent). Human colorectal cancer tumor cells were trypsinized and resuspended as single cell suspensions at 3×10^7 cells per ml in PBS. 100 μL (3×10^6 cells total) of this suspension were injected into opposite left and right flanks of NOD/SCID mice. All mice were housed in a pathogen-free environment. Tumor size was monitored daily and once tumor volume had reached approximately 200 mm^3, treatment with 5Z-7-oxozeaenol was initiated (7 to 14 days post-implantation). Mice were injected daily with 15 mg/kg 5Z-7-oxozeaenol. The drug was resuspended as a 25 mg/ml stock in DMSO. This was further diluted 10-fold in Arachis Oil (Sigma Inc.) to yield a 2.5 mg/ml stock in 10% DMSO. Approximately 120 μl of this stock was delivered to 20 g mice intraperitoneally. Alternatively, 10% DMSO in Arachis Oil was delivered as a vehicle control.
# Palpable tumors were evident two weeks post-implantation, at which time mice were treated with either daily intraperitoneal 15 mg/kg of 5Z-7-oxozeaenol or vehicle alone (Rawlins et al., 1999).
structure (smiles),measurement,setting,value
COc1cc(O)c2c(c1)/C=C/C[C@H](O)[C@H](O)C(=O)/C=C\C[C@H](C)OC2=O [5Z-7-oxozeaenol],"tumor response (imaging, tumor volume)",[1],no significant response
same,caspase-3 or PARP cleavage,[2],little or no
same,effect on BIO-mediated TOP-FLASH induction,[3],abrogates the BIO-mediated TOP-FLASH induction
same,"tumor response (imaging, tumor volume)",[4],remarkable regression
same,IC50,[5],1.1 µM
same,toxicity in treated mice,[6],No overt toxicity
